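GI50 marks 50% less growth. TGI marks complete inhibition of growth.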
Columns and labels:
Assay in all cases: NCI-60 cell line screen, 384-well format
786-0 renal = tested on: 786-0 renal
A498 renal = tested on: A498 renal
A549 NSCLC = tested on: A549 NSCLC
ACHN renal = tested on: ACHN renal
BT-549 breast = tested on: BT-549 breast
CAKI-1 renal = tested on: CAKI-1 renal
CCRF-CEM leukemia = tested on: CCRF-CEM leukemia
COLO 205 colon = tested on: COLO 205 colon
DU-145 prostate = tested on: DU-145 prostate
EKVX NSCLC = tested on: EKVX NSCLC
HCC-2998 colon = tested on: HCC-2998 colon
HCT-116 colon = tested on: HCT-116 colon
HCT-15 colon = tested on: HCT-15 colon
HL-60(TB) leukemia = tested on: HL-60(TB) leukemia
HOP-62 NSCLC = tested on: HOP-62 NSCLC
HOP-92 NSCLC = tested on: HOP-92 NSCLC
HS 578T breast = tested on: HS 578T breast
HT29 colon = tested on: HT29 colon
IGROV1 ovarian = tested on: IGROV1 ovarian
K-562 leukemia = tested on: K-562 leukemia
KM12 colon = tested on: KM12 colon
LOX IMVI melanoma = tested on: LOX IMVI melanoma
M14 melanoma = tested on: M14 melanoma
MALME-3M melanoma = tested on: MALME-3M melanoma
MCF7 breast = tested on: MCF7 breast
MDA-MB-231 breast = tested on: MDA-MB-231 breast
MDA-MB-435 melanoma = tested on: MDA-MB-435 melanoma
MDA-MB-468 breast = tested on: MDA-MB-468 breast
MOLT-4 leukemia = tested on: MOLT-4 leukemia
NCI-H226 lung = tested on: NCI-H226 lung
NCI-H23 lung = tested on: NCI-H23 lung
NCI-H322M lung = tested on: NCI-H322M lung
NCI-H460 NSCLC = tested on: NCI-H460 NSCLC
NCI-H522 lung = tested on: NCI-H522 lung
NCI/ADR-RES ovarian = tested on: NCI/ADR-RES ovarian
OVCAR-3 ovarian = tested on: OVCAR-3 ovarian
OVCAR-4 ovarian = tested on: OVCAR-4 ovarian
OVCAR-8 ovarian = tested on: OVCAR-8 ovarian
PC-3 prostate = tested on: PC-3 prostate
RPMI-8226 leukemia = tested on: RPMI-8226 leukemia
RXF 393 renal = tested on: RXF 393 renal
SF-268 CNS = tested on: SF-268 CNS
SF-295 CNS = tested on: SF-295 CNS
SF-539 CNS = tested on: SF-539 CNS
SK-MEL-28 melanoma = tested on: SK-MEL-28 melanoma
SK-MEL-5 melanoma = tested on: SK-MEL-5 melanoma
SK-OV-3 ovarian = tested on: SK-OV-3 ovarian
SN12C renal = tested on: SN12C renal
SNB-19 CNS = tested on: SNB-19 CNS
SNB-75 CNS = tested on: SNB-75 CNS
SR leukemia = tested on: SR leukemia
SW-620 colon = tested on: SW-620 colon
T-47D breast = tested on: T-47D breast
TK-10 renal = tested on: TK-10 renal
U251 glioblastoma = tested on: U251 glioblastoma
UACC-257 melanoma = tested on: UACC-257 melanoma
UACC-62 melanoma = tested on: UACC-62 melanoma
UO-31 renal = tested on: UO-31 renal

Nc1ncccc1-c1nc2ccc(-c3ccccc3)nc2n1-c1ccc(C2(N)CCC2)cc1 gave a GI50 ([…]-0 renal) of 1.04 µM, a TGI (786-0 renal) of 2.22 µM and a GI50 (A498 renal) of 0.234 µM. It also gave a TGI (A498 renal) of 1.31 µM, a GI50 (A549 NSCLC) of 1.76 µM and a TGI (A549 NSCLC) of 4.17 µM. The GI50 (ACHN renal) was 1.72 µM, the TGI (ACHN renal) was 4.04 µM and the GI50 (BT-549 breast) was 1.05 µM. The TGI (BT-549 breast) was 2.25 µM, the GI50 (CAKI-1 renal) was 1.05 µM and the TGI (CAKI-1 renal) was 2.27 µM. The GI50 (CCRF-CEM leukemia) was 0.285 µM, the TGI (CCRF-CEM leukemia) was 1.76 µM and the GI50 (COLO 205 colon) was 1.03 µM. For the same compound, the TGI (COLO 205 colon) was 2.21 µM, the GI50 (DU-145 prostate) was 2.42 µM and the TGI (DU-145 prostate) was 8.3 µM. It also gave a GI50 (EKVX NSCLC) of 1.64 µM, a TGI (EKVX NSCLC) of 5.08 µM and a GI50 (HCC-2998 colon) of 1.35 µM. The TGI (HCC-2998 colon) was 2.64 µM, the GI50 (HCT-116 colon) was 1.5 µM and the TGI (HCT-116 colon) was 2.83 µM. The GI50 (HCT-15 colon) was 1.24 µM, the TGI (HCT-15 colon) was 2.49 µM and the GI50 (HL-60(TB) leukemia) was 1.82 µM. The TGI (HL-60(TB) leukemia) was 3.21 µM, the GI50 (HOP-62 NSCLC) was 1.61 µM and the TGI (HOP-62 NSCLC) was 3.02 µM. For the same compound, the GI50 (HOP-92 NSCLC) was 1.4 µM, the TGI (HOP-92 NSCLC) was 3.12 µM and the GI50 (HS 578T breast) was 1.03 µM. It also gave a TGI (HS 578T breast) of 2.2 µM, a GI50 (HT29 colon) of 1.1 µM and a TGI (HT29 colon) of 2.34 µM. For the same compound, the GI50 (IGROV1 ovarian) was 0.187 µM, the TGI (IGROV1 ovarian) was 1.81 µM and the GI50 (K-562 leukemia) was 1.6 µM. The TGI (K-562 leukemia) was 2.95 µM, the GI50 (KM12 colon) was 1.54 µM and the TGI (KM12 colon) was 3.27 µM. For the same compound, the GI50 (LOX IMVI melanoma) was 1.74 µM, the TGI (LOX IMVI melanoma) was 3.11 µM and the GI50 (M14 melanoma) was 1.37 µM. It also gave a TGI (M14 melanoma) of 2.66 µM, a GI50 (MALME-3M melanoma) of 0.464 µM and a TGI (MALME-3M melanoma) of 1.91 µM. It also gave a GI50 (MCF7 breast) of 0.0963 µM, a TGI (MCF7 breast) of 1.54 µM and a GI50 (MDA-MB-231 breast) of 1.43 µM. The TGI (MDA-MB-231 breast) was 2.79 µM, the GI50 (MDA-MB-435 melanoma) was 1.75 µM and the TGI (MDA-MB-435 melanoma) was 3.13 µM. It also gave a GI50 (MDA-MB-468 breast) of 0.226 µM, a TGI (MDA-MB-468 breast) of 1.42 µM and a GI50 (MOLT-4 leukemia) of 0.154 µM. For the same compound, the TGI (MOLT-4 leukemia) was 1.21 µM, the GI50 (NCI-H226 lung) was 1.42 µM and the TGI (NCI-H226 lung) was 3.34 µM. For the same compound, the GI50 (NCI-H23 lung) was 2.4 µM, the TGI (NCI-H23 lung) was 8.07 µM and the GI50 (NCI-H322M lung) was 1.38 µM. The TGI (NCI-H322M lung) was 2.96 µM, the GI50 (NCI-H460 NSCLC) was 0.359 µM and the TGI (NCI-H460 NSCLC) was 1.82 µM. For the same compound, the GI50 (NCI-H522 lung) was 1.56 µM, the TGI (NCI-H522 lung) was 2.9 µM and the GI50 (NCI/ADR-RES ovarian) was 1.95 µM. For the same compound, the TGI (NCI/ADR-RES ovarian) was 4.12 µM, the GI50 (OVCAR-3 ovarian) was 0.476 µM and the TGI (OVCAR-3 ovarian) was 2.05 µM. The GI50 (OVCAR-4 ovarian) was 3.62 µM, the TGI (OVCAR-4 ovarian) was 12.1 µM and the GI50 (OVCAR-8 ovarian) was 1.43 µM. The TGI (OVCAR-8 ovarian) was 2.75 µM, the GI50 (PC-3 prostate) was 0.139 µM and the TGI (PC-3 prostate) was 1.63 µM. The GI50 (RPMI-8226 leukemia) was 1.42 µM, the TGI (RPMI-8226 leukemia) was 2.72 µM and the GI50 (RXF 393 renal) was 0.582 µM. The TGI (RXF 393 renal) was 1.91 µM, the GI50 (SF-268 CNS) was 1.59 µM and the TGI (SF-268 CNS) was 2.96 µM. It also gave a GI50 (SF-295 CNS) of 1.05 µM, a TGI (SF-295 CNS) of 2.23 µM and a GI50 (SF-539 CNS) of 1.16 µM. It also gave a TGI (SF-539 CNS) of 2.38 µM, a GI50 (SK-MEL-28 melanoma) of 1.22 µM and a TGI (SK-MEL-28 melanoma) of 2.46 µM. The GI50 (SK-MEL-5 melanoma) was 1.45 µM, the TGI (SK-MEL-5 melanoma) was 2.77 µM and the GI50 (SK-OV-3 ovarian) was 0.547 µM. It also gave a TGI (SK-OV-3 ovarian) of 2.19 µM, a GI50 (SN12C renal) of 2.39 µM and a TGI (SN12C renal) of 14.4 µM. It also gave a GI50 (SNB-19 CNS) of 1.76 µM, a TGI (SNB-19 CNS) of 3.17 µM and a GI50 (SNB-75 CNS) of 0.597 µM. For the same compound, the TGI (SNB-75 CNS) was 2.02 µM, the GI50 (SR leukemia) was 0.0966 µM and the TGI (SR leukemia) was 1.26 µM. The GI50 (SW-620 colon) was 1.79 µM, the TGI (SW-620 colon) was 3.18 µM and the GI50 (T-47D breast) was 0.0355 µM. It also gave a TGI (T-47D breast) of 1.04 µM, a GI50 (TK-10 renal) of 1.24 µM and a TGI (TK-10 renal) of 2.6 µM. For the same compound, the GI50 (U251 glioblastoma) was 1.46 µM, the TGI (U251 glioblastoma) was 2.77 µM and the GI50 (UACC-257 melanoma) was 1.46 µM. It also gave a TGI (UACC-257 melanoma) of 2.77 µM, a GI50 (UACC-62 melanoma) of 1.16 µM and a TGI (UACC-62 melanoma) of 2.39 µM. The GI50 (UO-31 renal) was 1.32 µM and the TGI (UO-31 renal) was 2.6 µM.

Source: PubChem BioAssay (NCI)
